The values below come from patent US10314823B2, “Substituted 1,2-dihydro-3H-pyrrolo[1,2-c]imidazol-3-one antibacterial compounds” (IDORSIA PHARMACEUTICALS LTD, priority 2015, dated 2019).

Test in all cases: Bacterial growth minimal inhibitory concentration (CLSI broth microdilution)
Format in all cases: cell-based
Background: In broth dilution the organism is exposed to a series of concentrations in liquid medium.

One assay concerns P. aeruginosa ATCC27853. The conditions noted are these: Pseudomonas aeruginosa, ATCC27853; quinolone-sensitive strain; cation-adjusted Mueller-Hinton Broth. As to the method: (§1) Minimal Inhibitory Concentrations (MICs; mg/L) were determined in cation-adjusted Mueller-Hinton Broth by a microdilution method following the description given in “Methods for Dilution Antimicrobial Susceptibility Tests for Bacteria that Grow Aerobically”, Approved standard, 7th ed., Clinical and Laboratory Standards Institute (CLSI) Document M7-A7, Wayne, Pa., USA (2006).
(§2) All Reference Example compounds were tested against several Gram-negative bacteria. K. pneumoniae A-651 is a multiply resistant strain (in particular quinolone-resistant), while E. coli ATCC25922 and P. aeruginosa ATCC27853 are quinolone-sensitive strains. The corresponding antibacterial test results are given in Table 1 hereafter (MICs in mg/L).

In another assay the test system is K. pneumoniae A-651. The conditions noted are these: Klebsiella pneumoniae, A651; multiply resistant strain (in particular quinolone-resistant); cation-adjusted Mueller-Hinton Broth. As to the method: as §1, §2
A further assay relates to E. coli ATCC25922. The conditions noted are these: Escherichia coli, ATCC25922; quinolone-sensitive strain; cation-adjusted Mueller-Hinton Broth. As to the method:
as §1, §2

In brackets after ≈: the same amount, converted by molar mass.

Turning to `C[C@@](CCN1Cc2cc(C#Cc3ccc(CN4CC(CO)OC4=O)cc3)cn2C1=O)(C(=O)NO)S(C)(=O)=O` (mixture of isomers) [Example 12, (2R)—N-hydroxy-4-(6-((4-((RS)-(5-(hydroxymethyl)-2-oxooxazolidin-3-yl)methyl)phenyl)ethynyl)-3-oxo-1H-pyrrolo[1,2-c]imidazol-2(3H)-yl)-2-methyl-2-(methylsulfonyl)butanamide], the MIC (in general, the smallest concentration in the dilution series that meets the test's criterion for growth inhibition) with P. aeruginosa ATCC27853 amounted to 4 µg/mL; in the assay on K. pneumoniae A-651 it was 2 µg/mL; in the assay with E. coli ATCC25922 it was 1 µg/mL.

As for `COCCN(C)CC(O)c1ccc(C#Cc2cc3n(c2)C(=O)N(CC[C@](C)(C(=O)NO)S(C)(=O)=O)C3)cc1` (mixture of isomers) [Example 28, (2R)—N-hydroxy-4-(6-((RS)-(4-(1-hydroxy-2-((2-methoxyethyl)(methyl)amino)ethyl)phenyl)ethynyl)-3-oxo-1H-pyrrolo[1,2-c]imidazol-2(3H)-yl)-2-methyl-2-(methylsulfonyl)butanamide], the figures for the MIC against P. aeruginosa ATCC27853, against K. pneumoniae A-651 and against E. coli ATCC25922 were 2 µg/mL, 8 µg/mL and 1 µg/mL, respectively.

Turning to `C[C@@](CCN1Cc2cc(C#CC#CC3(F)CCN(C4CC4)C3)cn2C1=O)(C(=O)NO)S(C)(=O)=O` (mixture of isomers) [Example 76, (2R)-4-(6-(((3RS)-1-cyclopropyl-3-fluoropyrrolidin-3-yl)buta-1,3-diyn-1-yl)-3-oxo-1H-pyrrolo[1,2-c]imidazol-2(3H)-yl)-N-hydroxy-2-methyl-2-(methylsulfonyl)butanamide], the MIC with P. aeruginosa ATCC27853 came out at 2 µg/mL; in the assay with K. pneumoniae A-651 it was 0.25 µg/mL; with E. coli ATCC25922, 0.125 µg/mL.

With `C[C@@](CCN1Cc2cc(C#CC#CC3(F)CCN(CCO)C3)cn2C1=O)(C(=O)NO)S(C)(=O)=O` (mixture of isomers) [Example 77, (2R)-4-(6-(((3RS)-3-fluoro-1-(2-hydroxyethyl)pyrrolidin-3-yl)buta-1,3-diyn-1-yl)-3-oxo-1H-pyrrolo[1,2-c]imidazol-2(3H)-yl)-N-hydroxy-2-methyl-2-(methylsulfonyl)butanamide], the MIC in the assay with P. aeruginosa ATCC27853 was 1 µg/mL; against K. pneumoniae A-651, 1 µg/mL; in the assay with E. coli ATCC25922, 0.5 µg/mL.

With `C[C@@](CCN1Cc2cc(C#CC#CC3(F)CCNC3)cn2C1=O)(C(=O)NO)S(C)(=O)=O` (mixture of isomers) [Example 78, (2R)-4-(6-(((3RS)-3-fluoropyrrolidin-3-yl)buta-1,3-diyn-1-yl)-3-oxo-1H-pyrrolo[1,2-c]imidazol-2(3H)-yl)-N-hydroxy-2-methyl-2-(methylsulfonyl)butanamide], the minimum inhibitory concentration (MIC) in the assay with P. aeruginosa ATCC27853, against K. pneumoniae A-651 and against E. coli ATCC25922 was 1 µg/mL each time.

With `CN1CCC(C)(C#CC#Cc2cc3n(c2)C(=O)N(CC[C@](C)(C(=O)NO)S(C)(=O)=O)C3)C1` (mixture of isomers) [Example 82, (2R)-4-(6-(((3RS)-1,3-dimethylpyrrolidin-3-yl)buta-1,3-diyn-1-yl)-3-oxo-1H-pyrrolo[1,2-c]imidazol-2(3H)-yl)-N-hydroxy-2-methyl-2-(methylsulfonyl)butanamide], the MIC was 4 µg/mL in the assay with P. aeruginosa ATCC27853, 2 µg/mL in the assay with K. pneumoniae A-651 and 2 µg/mL against E. coli ATCC25922.

Take `CN1CCC(C#CC#Cc2cc3n(c2)C(=O)N(CC[C@](C)(C(=O)NO)S(C)(=O)=O)C3)C1` (mixture of isomers) [Example 83, (2R)—N-hydroxy-2-methyl-4-(6-(((3RS)-1-methylpyrrolidin-3-yl)buta-1,3-diyn-1-yl)-3-oxo-1H-pyrrolo[1,2-c]imidazol-2(3H)-yl)-2-(methylsulfonyl)butanamide]: the minimum inhibitory concentration (MIC) in the assay with P. aeruginosa ATCC27853 came out at 1 µg/mL; with K. pneumoniae A-651, 1 µg/mL; in the assay with E. coli ATCC25922, 2 µg/mL.

Take `C[C@@](CCN1Cc2cc(C#Cc3ccc(CN4CC[C@H](N)[C@@H](F)C4)cc3)cn2C1=O)(C(=O)NO)S(C)(=O)=O` (relative stereo) [Example 13, (2R)-4-(6-((4-(((3S*,4S*)-4-amino-3-fluoropiperidin-1-yl)methyl)phenyl)ethynyl)-3-oxo-1H-pyrrolo[1,2-c]imidazol-2(3H)-yl)-N-hydroxy-2-methyl-2-(methylsulfonyl)butanamide]: the MIC against P. aeruginosa ATCC27853, with K. pneumoniae A-651 and against E. coli ATCC25922 was 1 µg/mL (≈ 1.83 µM) each time.

For `C[C@@](CCN1Cc2cc(C#Cc3ccc(CN4CC[C@H](O)[C@@H](F)C4)cc3)cn2C1=O)(C(=O)NO)S(C)(=O)=O` (relative stereo) [Example 36, (2R)-4-(6-((4-(((3S*,4S*)-3-fluoro-4-hydroxypiperidin-1-yl)methyl)phenyl)ethynyl)-3-oxo-1H-pyrrolo[1,2-c]imidazol-2(3H)-yl)-N-hydroxy-2-methyl-2-(methylsulfonyl)butanamide], the results for the MIC in the assay with P. aeruginosa ATCC27853, against K. pneumoniae A-651 and with E. coli ATCC25922 were 1 µg/mL (≈ 1.83 µM), 0.5 µg/mL (≈ 0.915 µM) and 0.25 µg/mL (≈ 0.457 µM), respectively.

Regarding `C[C@@](CCN1Cc2cc(C#Cc3ccc(CN4CC[C@H](O)[C@H](F)C4)cc3)cn2C1=O)(C(=O)NO)S(C)(=O)=O` (relative stereo) [Example 42, (2R)-4-(6-((4-(((3R*,4S*)-3-fluoro-4-hydroxypiperidin-1-yl)methyl)phenyl)ethynyl)-3-oxo-1H-pyrrolo[1,2-c]imidazol-2(3H)-yl)-N-hydroxy-2-methyl-2-(methylsulfonyl)butanamide], the MIC with P. aeruginosa ATCC27853 is 2 µg/mL (≈ 3.66 µM); in the assay on K. pneumoniae A-651 it was 1 µg/mL (≈ 1.83 µM); against E. coli ATCC25922, 0.5 µg/mL (≈ 0.915 µM).

As for `CN1C[C@H](O)[C@@H](C#CC#Cc2cc3n(c2)C(=O)N(CC[C@](C)(C(=O)NO)S(C)(=O)=O)C3)C1` (relative stereo) [Example 99, (2R)—N-hydroxy-4-(6-(((3S*,4R*)-4-hydroxy-1-methylpyrrolidin-3-yl)buta-1,3-diyn-1-yl)-3-oxo-1H-pyrrolo[1,2-c]imidazol-2(3H)-yl)-2-methyl-2-(methylsulfonyl)butanamide], the MIC against P. aeruginosa ATCC27853, with K. pneumoniae A-651 and with E. coli ATCC25922 was 2 µg/mL (≈ 4.32 µM) in each case.

Turning to `C[C@@](CCN1Cc2cc(C#Cc3ccc([C@@H](O)CN4CCOCC4)cc3)cn2C1=O)(C(=O)NO)S(C)(=O)=O` (single isomer, unassigned) [Example 1], the minimum inhibitory concentration (MIC) in the assay on P. aeruginosa ATCC27853 worked out at 2 µg/mL (≈ 3.67 µM); in the assay with K. pneumoniae A-651 it was 2 µg/mL (≈ 3.67 µM); against E. coli ATCC25922, 1 µg/mL (≈ 1.84 µM).

As for `C[C@@](CCN1Cc2cc(C#Cc3ccc([C@H](O)CN4CCOCC4)cc3)cn2C1=O)(C(=O)NO)S(C)(=O)=O` (single isomer, unassigned) [Example 2], the MIC against P. aeruginosa ATCC27853, against K. pneumoniae A-651 and against E. coli ATCC25922 was 1 µg/mL (≈ 1.84 µM) each time.

Regarding `CN1CC[C@@](F)(C#CC#Cc2cc3n(c2)C(=O)N(CC[C@](C)(C(=O)NO)S(C)(=O)=O)C3)C1.O=C(O)C(F)(F)F` (single isomer, unassigned) [Example 71], the minimum inhibitory concentration (MIC) with P. aeruginosa ATCC27853 was 2 µg/mL; in the assay on K. pneumoniae A-651 it was 0.5 µg/mL; in the assay on E. coli ATCC25922 it was 0.25 µg/mL.

Take `CN1CC[C@](F)(C#CC#Cc2cc3n(c2)C(=O)N(CC[C@](C)(C(=O)NO)S(C)(=O)=O)C3)C1.O=C(O)C(F)(F)F` (single isomer, unassigned) [Example 72]: the MIC with P. aeruginosa ATCC27853 came out at 2 µg/mL; with K. pneumoniae A-651, 0.5 µg/mL; against E. coli ATCC25922, 0.5 µg/mL.

For the compound `CN1C[C@@H](C#CC#Cc2cc3n(c2)C(=O)N(CC[C@](C)(C(=O)NO)S(C)(=O)=O)C3)C[C@@H]1CO` (single isomer, unassigned) [Example 94], the values for the minimal inhibitory concentration (MIC) with P. aeruginosa ATCC27853, with K. pneumoniae A-651 and against E. coli ATCC25922 were 0.5 µg/mL (≈ 1.05 µM), 1 µg/mL (≈ 2.1 µM) and 1 µg/mL (≈ 2.1 µM), respectively.

For the compound `C[C@@](CCN1Cc2cc(C#Cc3ccc(CN4CC5(COC5)C4)cc3)cn2C1=O)(C(=O)NO)S(C)(=O)=O` [Example 3, (2R)-4-(6-((4-((2-oxa-6-azaspiro[3.3]heptan-6-yl)methyl)phenyl)ethynyl)-3-oxo-1H-pyrrolo[1,2-c]imidazol-2(3H)-yl)-N-hydroxy-2-methyl-2-(methylsulfonyl)butanamide], the MIC against P. aeruginosa ATCC27853 stood at 1 µg/mL (≈ 1.9 µM); with K. pneumoniae A-651, 1 µg/mL (≈ 1.9 µM); in the assay on E. coli ATCC25922, 0.25 µg/mL (≈ 0.475 µM).

As to `C[C@@](CCN1Cc2cc(C#Cc3ccc(CN4CC5C(N)C5C4)cc3)cn2C1=O)(C(=O)NO)S(C)(=O)=O` (stereo partly drawn) [Example 4, (2R)-4-(6-((4-((6-amino-3-azabicyclo[3.1.0]hexan-3-yl)methyl)phenyl)ethynyl)-3-oxo-1H-pyrrolo[1,2-c]imidazol-2(3H)-yl)-N-hydroxy-2-methyl-2-(methylsulfonyl)butanamide], the minimal inhibitory concentration (MIC) with P. aeruginosa ATCC27853, against K. pneumoniae A-651 and against E. coli ATCC25922 was 2 µg/mL (≈ 3.8 µM) in each case.

For the compound `C[C@@](CCN1Cc2cc(C#Cc3ccc(COC(=O)N4CCC(O)CC4)cc3)cn2C1=O)(C(=O)NO)S(C)(=O)=O` [Example 5, (3R)-4-((2-(4-(hydroxyamino)-3-methyl-3-(methylsulfonyl)-4-oxobutyl)-3-oxo-2,3-dihydro-1H-pyrrolo[1,2-c]imidazol-6-yl)ethynyl)benzyl 4-hydroxypiperidine-1-carboxylate], the minimum inhibitory concentration (MIC) against P. aeruginosa ATCC27853 worked out at 2 µg/mL (≈ 3.49 µM); against K. pneumoniae A-651 it was 1 µg/mL (≈ 1.75 µM); against E. coli ATCC25922 it was 0.25 µg/mL (≈ 0.437 µM).

On to `CC(=O)N1CC(O)(c2ccc(C#Cc3cc4n(c3)C(=O)N(CC[C@](C)(C(=O)NO)S(C)(=O)=O)C4)cc2)C1` [Example 6, (2R)-4-(6-((4-(1-acetyl-3-hydroxyazetidin-3-yl)phenyl)ethynyl)-3-oxo-1H-pyrrolo[1,2-c]imidazol-2(3H)-yl)-N-hydroxy-2-methyl-2-(methylsulfonyl)butanamide], for which the minimum inhibitory concentration (MIC) in the assay on P. aeruginosa ATCC27853 is 1 µg/mL (≈ 1.89 µM); against K. pneumoniae A-651, 4 µg/mL (≈ 7.57 µM); against E. coli ATCC25922 it was 2 µg/mL (≈ 3.78 µM).
